Source: patent US20050014830A1 (priority 2003, published 2005)
Where two headings read alike, the source gives them in different places.

Assays:
Serratia bacterium = tested on: Serratia bacterium; parameters: species or system Serratia species
SARS virus = tested on: SARS virus; parameters: species or system SARS virus (coronavirus)

O=C(O)CCCCCCCO [8-hydroxyoctanoic acid]
AFM height of the enterovirus virion after treatment (enterovirus): about 1,300 nm | surface roughness of the bacterium measured by AFM (Serratia bacterium): increased | conformation of the SARS virion (AFM picture) (SARS virus; FIG. 9B, a few minutes after treatment): disruption | conformation of the SARS virion (AFM picture) (SARS virus; FIG. 9C, a few more minutes into treatment): collapsed further more | conformation of the SARS virion (AFM picture) (SARS virus; FIG. 9D, final stage of treatment): completely killed
